Experimental data as given in PMC8526983 (The Journal of Biological Chemistry, 2021).

Target: T1, PfK5ΔL6-MD (Plasmodium falciparum, UniProt O77382, DEL175-269)
T1 construct: gene PF3D7_0317500
Settings: read-out: KATP; 1 μM GMPCPP-stabilised Sus scrofa microtubules; 50 mM Tris-HCl pH 8, KCl, 2 mM MgCl2, 2 mM DTT; 26 °C

## Nc1ncnc2c1ncn2[C@@H]1O[C@H](COP(=O)(O)OP(=O)(O)OP(=O)(O)O)[C@@H](O)[C@H]1O [ATP]
  Km: 9.5 µM
